Test results published in PubChem BioAssay (NCI).
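Assay format: 96-well plates, 48-hour exposure. Here, GI50 denotes the concentration required for 50% inhibition of growth. TGI marks complete inhibition of growth.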

Tests used:
Test in all cases: NCI tumour cell line growth inhibition, 48 h
[1] = system: DU-145 prostate
[2] = system: IGROV1 ovarian
[3] = system: M14 melanoma
[4] = system: TK-10 renal
[5] = system: HT29 colon
[6] = system: NCI-H226 lung
[7] = system: A498 renal
[8] = system: OVCAR-4 ovarian
[9] = system: SNB-19 CNS
[10] = system: UACC-62 melanoma
[11] = system: CCRF-CEM leukemia
[12] = system: SK-MEL-5 melanoma
[13] = system: SR leukemia
[14] = system: COLO 205 colon
[15] = system: NCI-H23 lung
[16] = system: UO-31 renal
[17] = system: EKVX NSCLC
[18] = system: OVCAR-3 ovarian
[19] = system: OVCAR-8 ovarian
[20] = system: K-562 leukemia
[21] = system: A549 NSCLC
[22] = system: T-47D breast
[23] = system: RPMI-8226 leukemia
[24] = system: SW-620 colon
[25] = system: U251 CNS
[26] = system: SK-MEL-2 melanoma
[27] = system: CAKI-1 renal
[28] = system: HS 578T breast
[29] = system: BT-549 breast
[30] = system: MALME-3M melanoma
[31] = system: SF-268 CNS
[32] = system: NCI-H460 lung
[33] = system: RXF 393 renal
[34] = system: MCF7 breast
[35] = system: MDA-MB-435
[36] = system: HCT-15 colon
[37] = system: PC-3 prostate
[38] = system: SF-539 CNS
[39] = system: SN12C renal
[40] = system: UACC-257 melanoma
[41] = system: MOLT-4 leukemia
[42] = system: NCI/ADR-RES ovarian
[43] = system: LOX IMVI melanoma
[44] = system: HL-60(TB) leukemia
[45] = system: SK-MEL-28 melanoma
[46] = system: HOP-62 NSCLC
[47] = system: ACHN renal
[48] = system: HOP-92 NSCLC
[49] = system: MDA-MB-231 breast
[50] = system: SK-OV-3 ovarian
[51] = system: HCT-116 colon
[52] = system: SF-295 CNS
[53] = system: OVCAR-5 ovarian
[54] = system: KM12 colon
[55] = system: SNB-75 CNS
[56] = system: NCI-H522 lung
[57] = system: HCC-2998 colon
[58] = system: 786-0 renal

## CC1(C)CCc2c(ccc(C(=O)/C=C/c3ccc(O)cc3)c2O)O1
[1]
  TGI: 18.6 µM
[2]
  TGI: 19.9 µM
[3]
  TGI: 20.7 µM
[4]
  TGI: 20 µM
[5]
  TGI: 23.9 µM
[6]
  TGI: 22.3 µM
[7]
  TGI: 29.8 µM
[8]
  TGI: 19.6 µM
[9]
  TGI: 25.8 µM
[10]
  TGI: 19.6 µM
[11]
  TGI: 13.2 µM
[12]
  TGI: 22 µM
[13]
  TGI: 30.5 µM
[14]
  TGI: 20.7 µM
[15]
  TGI: 22.7 µM
[16]
  TGI: 25.5 µM
[17]
  TGI: 10.1 µM
[18]
  TGI: 18.3 µM
[19]
  TGI: 22 µM
[20]
  TGI: 75 µM
[21]
  TGI: 25.8 µM
[22]
  TGI: 21 µM
[23]
  TGI: 20.8 µM
[24]
  TGI: 24.4 µM
[25]
  TGI: 20.1 µM
[26]
  TGI: 23.5 µM
[27]
  TGI: 15.8 µM
[28]
  TGI: 27.2 µM
[29]
  TGI: 22.3 µM
[30]
  TGI: 16.3 µM
[31]
  TGI: 23.2 µM
[32]
  TGI: 22.2 µM
[33]
  TGI: 20.4 µM
[34]
  TGI: 29.4 µM
[35]
  TGI: 19.9 µM
[36]
  TGI: 20.5 µM
[37]
  TGI: 17.8 µM
[38]
  TGI: 22 µM
[39]
  TGI: 20.7 µM
[40]
  TGI: 23.4 µM
[41]
  TGI: 69.1 µM
[42]
  TGI: 21.6 µM
[43]
  TGI: 19.8 µM
[44]
  TGI: 44.2 µM
[45]
  TGI: 17 µM
[46]
  TGI: 19.4 µM
[47]
  TGI: 20.5 µM
[48]
  TGI: 24.4 µM
[49]
  TGI: 18.9 µM
[50]
  TGI: 74.6 µM
[51]
  TGI: 20 µM
[52]
  TGI: 26.1 µM
[53]
  TGI: 21.7 µM

## Nc1c(C(=O)Nc2ccccn2)sc2nc3c(cc12)C(=O)CCC3
[1]
  GI50: 1.98 µM
  TGI: > 100 µM
[2]
  GI50: 2.23 µM
  TGI: > 100 µM
[3]
  GI50: 0.483 µM
  TGI: > 100 µM
[4]
  GI50: 22.3 µM
  TGI: > 100 µM
[5]
  GI50: 0.47 µM
  TGI: > 100 µM
[6]
  GI50: 3.62 µM
  TGI: > 100 µM
[7]
  GI50: 0.345 µM
  TGI: > 100 µM
[8]
  GI50: 6.26 µM
  TGI: > 100 µM
[9]
  GI50: 1.3 µM
  TGI: > 100 µM
[10]
  GI50: 0.621 µM
  TGI: > 100 µM
[11]
  GI50: 0.79 µM
  TGI: > 100 µM
[12]
  GI50: 0.444 µM
  TGI: > 100 µM
[13]
  GI50: 2.75 µM
  TGI: > 100 µM
[14]
  GI50: 0.908 µM
  TGI: 26 µM
[15]
  GI50: 3.29 µM
  TGI: > 100 µM
[54]
  GI50: 0.762 µM
  TGI: > 100 µM
[16]
  GI50: 9.45 µM
  TGI: > 100 µM
[18]
  GI50: 0.792 µM
  TGI: 14.7 µM
[19]
  GI50: 6.52 µM
  TGI: > 100 µM
[20]
  GI50: 0.463 µM
  TGI: > 100 µM
[21]
  GI50: 1.78 µM
  TGI: > 100 µM
[22]
  GI50: 4.89 µM
  TGI: > 100 µM
[23]
  GI50: 3.24 µM
  TGI: > 100 µM
[24]
  GI50: 0.706 µM
  TGI: > 100 µM
[55]
  GI50: 0.646 µM
  TGI: 22.2 µM
[25]
  GI50: 1.34 µM
  TGI: > 100 µM
[26]
  GI50: 0.443 µM
  TGI: > 100 µM
[27]
  GI50: 0.697 µM
  TGI: > 100 µM
[28]
  GI50: 0.804 µM
  TGI: 93.7 µM
[29]
  GI50: 0.332 µM
  TGI: > 100 µM
[30]
  GI50: 13.1 µM
  TGI: > 100 µM
[56]
  GI50: 0.595 µM
  TGI: > 100 µM
[31]
  GI50: 8.26 µM
  TGI: > 100 µM
[32]
  GI50: 0.596 µM
  TGI: > 100 µM
[33]
  GI50: 1.11 µM
  TGI: 8.88 µM
[34]
  GI50: 0.435 µM
  TGI: > 100 µM
[36]
  GI50: 0.812 µM
  TGI: > 100 µM
[37]
  GI50: 1.43 µM
  TGI: > 100 µM
[38]
  GI50: 1.17 µM
  TGI: 5.65 µM
[39]
  GI50: 3.36 µM
  TGI: > 100 µM
[40]
  GI50: 69.8 µM
  TGI: > 100 µM
[41]
  GI50: > 100 µM
  TGI: > 100 µM
[42]
  GI50: 0.929 µM
  TGI: > 100 µM
[43]
  GI50: 4.18 µM
  TGI: > 100 µM
[44]
  GI50: 0.689 µM
  TGI: 5.27 µM
[45]
  GI50: 13.4 µM
  TGI: > 100 µM
[57]
  GI50: 3.15 µM
  TGI: > 100 µM
[46]
  GI50: 1.75 µM
  TGI: > 100 µM
[47]
  GI50: 6.06 µM
  TGI: > 100 µM
[48]
  GI50: 27.7 µM
  TGI: > 100 µM
[49]
  GI50: 4.54 µM
  TGI: > 100 µM
[50]
  GI50: 1.41 µM
  TGI: > 100 µM
[51]
  GI50: 0.52 µM
  TGI: > 100 µM
[58]
  GI50: 1.33 µM
  TGI: 44.6 µM
[52]
  GI50: 0.473 µM
  TGI: > 100 µM
[53]
  GI50: 9.53 µM
  TGI: > 100 µM
